# EP1542016A1, “PUMA, phosphorylated p53 and p38 map kinase as markers for HIV-1-induced apoptosis in circulating T cells of infected patient” (Institut Gustave Roussy, priority 2003, dated 2005)
# Key:
# Env-elicited syncytia = assay type: cell-based; conditions: SN50 20 µM, cyclic pifithrin-α 10 µM, added at the beginning of co-culture; Fig. 7D
# Method: HeLa/U937 cell co-cultures were performed at different ratios (6). U937 or Jurkat cells were cultured with recombinant gp120 protein (500 ng/ml).
# U937 cells = test: Induction of Puma in U937 cells co-cultured with HeLa Env cells; assay type: cell-based; set-up: dose or concentration left out as unconfirmed; conditions: 36 hours, Fig. 8A
# Method: Figure 8A. Induction of Puma in U937 cells co-cultured with HeLa Env cells. U937 cells were mixed at different ratios with HeLa Env cells, just before the preparation of cell lysates for immunoblot detection of Puma (Control) or coculture for 36 hours, in the absence or presence of the p53 inhibitor cyclic pifithrin α […]. The percentage of dead U937 cells was determined by trypan blue exclusion.
# HeLa cells stably transfected with the Env gene of HIV-1 LAI (HeLa Env) and HeLa cells transfected with CD4 (HeLa CD4) were cocultured at a 1:1 ratio (6), in DMEM medium supplemented with 10 % FCS, L-glutamine, in the absence or presence of roscovitin (1 µM), rapamycin (1 µM, Sigma), cyclic pifithrin-α (10 µM), MG132 (5 µM, Calbiochem), the NF-κB-inhibitory peptide SN50, or its negative control SN50M (20 µM, Biomol). HeLa/U937 cell co-cultures were performed at different ratios (6). U937 or Jurkat cells were cultured with recombinant gp120 protein (500 ng/ml).
# Protein samples were prepared from HeLa Env and HeLa CD4 single cells mixed at a 1:1 ratio in lysis buffer (single cells control) or from HeLa Env/CD4 syncytia. Proteins samples from HeLa Env and U937 mixed at different ratios were also prepared and subjected to immunoblot analysis. […]
# Env-induced syncytia = conditions: cited from earlier work
smiles,measurement,setting,value
"Cc1ccc(-c2cn3c4c(sc3n2)CCCC4)cc1 [pifithrin-α, cyclic pifithrin-α]",activation of Bax and Bak,Env-elicited syncytia,inhibited
same,upregulation of Puma,U937 cells,not inhibited
same,syncytium-dependent cell death,Env-induced syncytia; reference (5),blocked
same,Env-induced upregulation of Bax,"Env-induced syncytia; references (5, 7)",prevents
same,syncytial cell death,"Env-induced syncytia; references (5, 7)",retards
